This passage reports EC90 results from patent US9433621B2, “Substituted pyridine and pyrimidine derivatives and their use in treating viral infections” (Merck Sharp & Dohme Corp., priority 2010, dated 2016).

The structures appear in SMILES notation.

The subject of this assay is HCV replicon. The experiment in a line: Cell-Based HCV Replicon Assay. Conditions: Hepatitis C virus; HCV Replicon assay, EC90 range, Table VI; read-out: EC90. The essentials: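 Replicon cells, 5000/well, treated 3 days with 10 serial 2-fold dilutions (top 25 μM to 1 μM) in 0.5% DMSO, 10% FBS. Replicon RNA measured by multiplex Taqman RT-PCR (NS5B amplicon, GAPDH control); EC50/EC90 = concentration giving ΔCT of 1/3.2 over baseline from sigmoid fit.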

For `Cc1nc(NC2(C(C)C)CC2)nc(N[C@@H]2C[C@H](C(C)(C)O)[C@@H](O)[C@H]2O)c1-c1nc2c(C)nccc2s1` [Example 5030], the EC90 – broadly, the concentration at which the effect reaches the 90% level – lay in the range of 500 to 5000 nM.

For `Cc1nc(NC2(CC(C)C)CC2)nc(N[C@@H]2C[C@H](C(C)(C)O)[C@@H](O)[C@H]2O)c1-c1nc2c(C)nccc2s1` [Example 5031], the EC90 fell in the range of 500 to 5000 nM.

As to `Cc1nc(NC2COC3(CCCCC3)C2)nc(N[C@@H]2C[C@H](C(C)(C)O)[C@@H](O)[C@H]2O)c1-c1nc2c(C)nccc2s1` (stereo partly shown) [Example 5032], the EC90 was below 500 nM.

With `CO[C@H](C)CNc1nc(C)c(-c2nc3c(C)nccc3s2)c(N[C@@H]2C[C@H](COc3c(F)ccc(F)c3F)[C@@H](O)[C@H]2O)n1` [Example 5033], the EC90 was below 500 nM.

In the case of `CO[C@H](C)CNc1nc(C)c(-c2nc3c(C)nccc3s2)c(N[C@@H]2C[C@H](COc3cc(F)c(F)cc3F)[C@@H](O)[C@H]2O)n1` [Example 5034], the EC90 was below 500 nM.

For the molecule `Cc1nc(NCC(F)(F)C(F)(F)F)nc(N[C@@H]2C[C@H](C(C)(C)O)[C@@H](O)[C@H]2O)c1-c1nc2c(N)nccc2s1` [Example 5035], the EC90 was below 500 nM.

Take `COCCNc1nc(C)c(-c2nc3c(C)nccc3s2)c(N[C@@H]2C[C@H](C(C)(C)NS(C)(=O)=O)[C@@H](O)[C@H]2O)n1` [Example 5036]: the EC90 is below 500 nM.

For `COC[C@@H](C)Nc1nc(C)c(-c2nc3c(C)nccc3s2)c(N[C@@H]2C[C@H](C(C)(C)NS(C)(=O)=O)[C@@H](O)[C@H]2O)n1` [Example 5037], the EC90 is below 500 nM.

Regarding `CO[C@H](C)CNc1nc(C)c(-c2nc3c(C)nccc3s2)c(N[C@@H]2C[C@H](C(C)(C)NS(C)(=O)=O)[C@@H](O)[C@H]2O)n1` [Example 5038], the EC90 was below 500 nM.

In the case of `Cc1nc(NCCSC(C)(C)C)nc(N[C@@H]2C[C@H](C(C)(C)NS(C)(=O)=O)[C@@H](O)[C@H]2O)c1-c1nc2c(C)nccc2s1` [Example 5039], the EC90 is below 500 nM.

Consider `COC[C@@H](C)Nc1nc(C)c(-c2nc3c(C)nccc3s2)c(N[C@@H]2C[C@H](C(C)(C)NC(=O)OC)[C@@H](O)[C@H]2O)n1` [Example 5040], for which the EC90 is below 500 nM.

On to `COC(=O)NC(C)(C)[C@H]1C[C@@H](Nc2nc(NC[C@@H](C)OC)nc(C)c2-c2nc3c(C)nccc3s2)[C@H](O)[C@@H]1O` [Example 5041], for which the EC90 is below 500 nM.

Turning to `COCCNc1nc(C)c(-c2nc3c(C)nccc3s2)c(N[C@@H]2C[C@H](C(C)(C)NC(=O)OC)[C@@H](O)[C@H]2O)n1` [Example 5042], the EC90 is below 500 nM.

Consider `Cc1nc(NCC2CC2)nc(N[C@@H]2C[C@H](C(C)(C)NS(C)(=O)=O)[C@@H](O)[C@H]2O)c1-c1nc2c(C)nccc2s1` [Example 5044], for which the EC90 was below 500 nM.

Regarding `Cc1nc(NCC(C)(C)C)nc(N[C@@H]2C[C@H](C(C)(C)NS(C)(=O)=O)[C@@H](O)[C@H]2O)c1-c1nc2c(C)nccc2s1` [Example 5045], the EC90 is below 500 nM.

With `COC(=O)NC(C)(C)[C@H]1C[C@@H](Nc2nc(NCC3CC3)nc(C)c2-c2nc3c(C)nccc3s2)[C@H](O)[C@@H]1O` [Example 5046], the EC90 is below 500 nM.

Take `COC(=O)NC(C)(C)[C@H]1C[C@@H](Nc2nc(NCC(C)(C)C)nc(C)c2-c2nc3c(C)nccc3s2)[C@H](O)[C@@H]1O` [Example 5047]: the EC90 is below 500 nM.

In the case of `Cc1nc(NC2CC2)nc(N[C@@H]2C[C@H](C(C)(C)NS(C)(=O)=O)[C@@H](O)[C@H]2O)c1-c1nc2c(C)nccc2s1` [Example 5048], the EC90 is below 500 nM.

As for `Cc1nc(NC2CCC2)nc(N[C@@H]2C[C@H](C(C)(C)NS(C)(=O)=O)[C@@H](O)[C@H]2O)c1-c1nc2c(C)nccc2s1` [Example 5049], the EC90 was below 500 nM.

In the case of `COC(=O)NC(C)(C)[C@H]1C[C@@H](Nc2nc(NC3CC3)nc(C)c2-c2nc3c(C)nccc3s2)[C@H](O)[C@@H]1O` [Example 5050], the EC90 is below 500 nM.

Regarding `Cc1nc(NCC2CC2)nc(N[C@@H]2C[C@H](C(C)(C)N=[N+]=[N-])[C@@H](O)[C@H]2O)c1-c1nc2c(C3CC3)nccc2s1` [Example 5051], the EC90 was below 500 nM.

As to `CCS(=O)(=O)C(C)(C)[C@H]1C[C@@H](Nc2nc(NCC3CC3)nc(C)c2-c2nc3c(C)nccc3s2)[C@H](O)[C@@H]1O` [Example 5057], the EC90 is below 500 nM.

Regarding `CCS(=O)(=O)C(C)(C)[C@H]1C[C@@H](Nc2nc(NC3CCC3)nc(C)c2-c2nc3c(C)nccc3s2)[C@H](O)[C@@H]1O` [Example 5058], the EC90 was below 500 nM.

Take `CCS(=O)(=O)C(C)(C)[C@H]1C[C@@H](Nc2nc(NCC3CC3)nc(C)c2-c2nc3c(C4CC4)nccc3s2)[C@H](O)[C@@H]1O` [Example 5059]: the EC90 is below 500 nM.

Regarding `CCS(=O)(=O)C(C)(C)[C@H]1C[C@@H](Nc2nc(NC3CCC3)nc(C)c2-c2nc3c(C4CC4)nccc3s2)[C@H](O)[C@@H]1O` [Example 5060], the EC90 is below 500 nM.

On to `CCS(=O)(=O)C(C)(C)[C@H]1C[C@@H](Nc2nc(NCc3c(F)cc(F)cc3F)nc(C)c2-c2nc3c(C4CC4)nccc3s2)[C@H](O)[C@@H]1O` [Example 5061], for which the EC90 is below 500 nM.

In the case of `Cc1nc(NC2CCC2)nc(N[C@@H]2C[C@H](C(C)(C)S(C)(=O)=O)[C@@H](O)[C@H]2O)c1-c1nc2c(C)nccc2s1` [Example 5062], the EC90 was below 500 nM.

With `Cc1nc(NCc2c(F)cc(F)cc2F)nc(N[C@@H]2C[C@H](C(C)(C)S(C)(=O)=O)[C@@H](O)[C@H]2O)c1-c1nc2c(C)nccc2s1` [Example 5063], the EC90 was below 500 nM.

With `Cc1nc(NC2CCC2)nc(N[C@@H]2C[C@H](C(C)(C)S(C)(=O)=O)[C@@H](O)[C@H]2O)c1-c1nc2c(C3CC3)nccc2s1` [Example 5064], the EC90 was below 500 nM.

As for `Cc1nc(NCc2c(F)cc(F)cc2F)nc(N[C@@H]2C[C@H](C(C)(C)S(C)(=O)=O)[C@@H](O)[C@H]2O)c1-c1nc2c(C3CC3)nccc2s1` [Example 5065], the EC90 is below 500 nM.

`Cc1nc(NCC2CC2)nc(N[C@@H]2C[C@H](C(C)(C)S(=O)(=O)c3ccccc3)[C@@H](O)[C@H]2O)c1-c1nc2c(C)nccc2s1` [Example 5066]: the EC90 is below 500 nM.

As for `Cc1nc(NCC(F)(F)F)nc(N[C@@H]2C[C@H](C(C)(C)S(=O)(=O)c3ccccc3)[C@@H](O)[C@H]2O)c1-c1nc2c(C)nccc2s1` [Example 5067], the EC90 was below 500 nM.

For `Cc1nc(NCC(C)(C)C)nc(N[C@@H]2C[C@H](C(C)(C)S(=O)(=O)c3ccccc3)[C@@H](O)[C@H]2O)c1-c1nc2c(C)nccc2s1` [Example 5068], the EC90 was below 500 nM.

Regarding `Cc1nc(N)nc(N[C@@H]2C[C@H](C(C)(C)S(C)(=O)=O)[C@@H](O)[C@H]2O)c1-c1nc2c(C)nccc2s1` [Example 5069], the EC90 is below 500 nM.

As for `Cc1nc(NCC2CC2)nc(N[C@@H]2C[C@H](C(C)(C)S(C)(=O)=O)[C@@H](O)[C@H]2O)c1-c1nc2c(C)nccc2s1` [Example 5070], the EC90 is below 500 nM.

As for `COCCNc1nc(C)c(-c2nc3c(C)nccc3s2)c(N[C@@H]2C[C@H](C(C)(C)S(C)(=O)=O)[C@@H](O)[C@H]2O)n1` [Example 5071], the EC90 is below 500 nM.

Regarding `Cc1nc(N)nc(N[C@@H]2C[C@H](C(C)(C)S(C)(=O)=O)[C@@H](O)[C@H]2O)c1-c1nc2c(C3CC3)nccc2s1` [Example 5072], the EC90 was below 500 nM.
